Laboratory results: patent US12202832B2, “Heterocyclic compounds having a calcium-sensing receptor antagonistic activity” (TAKEDA PHARMACEUTICAL COMPANY LIMITED, priority 2017, dated 2025)

Tests used:
[1] = molecular target: T1, human CaSR (Homo sapiens, UniProt P41180); test: Human CaSR antagonist activity (NFAT-Luciferase reporter in CHO cells); format: cell-based; conditions: CHO, CaCl2 final 1.3 mM, 100% = reference antagonist at 10 μM, read-out: Inhibition rate (%) at 3.3 μM
T1 construct: expressed in transfected cells; host or cells: CHO cells
T1 sequence (P41180 20-1078): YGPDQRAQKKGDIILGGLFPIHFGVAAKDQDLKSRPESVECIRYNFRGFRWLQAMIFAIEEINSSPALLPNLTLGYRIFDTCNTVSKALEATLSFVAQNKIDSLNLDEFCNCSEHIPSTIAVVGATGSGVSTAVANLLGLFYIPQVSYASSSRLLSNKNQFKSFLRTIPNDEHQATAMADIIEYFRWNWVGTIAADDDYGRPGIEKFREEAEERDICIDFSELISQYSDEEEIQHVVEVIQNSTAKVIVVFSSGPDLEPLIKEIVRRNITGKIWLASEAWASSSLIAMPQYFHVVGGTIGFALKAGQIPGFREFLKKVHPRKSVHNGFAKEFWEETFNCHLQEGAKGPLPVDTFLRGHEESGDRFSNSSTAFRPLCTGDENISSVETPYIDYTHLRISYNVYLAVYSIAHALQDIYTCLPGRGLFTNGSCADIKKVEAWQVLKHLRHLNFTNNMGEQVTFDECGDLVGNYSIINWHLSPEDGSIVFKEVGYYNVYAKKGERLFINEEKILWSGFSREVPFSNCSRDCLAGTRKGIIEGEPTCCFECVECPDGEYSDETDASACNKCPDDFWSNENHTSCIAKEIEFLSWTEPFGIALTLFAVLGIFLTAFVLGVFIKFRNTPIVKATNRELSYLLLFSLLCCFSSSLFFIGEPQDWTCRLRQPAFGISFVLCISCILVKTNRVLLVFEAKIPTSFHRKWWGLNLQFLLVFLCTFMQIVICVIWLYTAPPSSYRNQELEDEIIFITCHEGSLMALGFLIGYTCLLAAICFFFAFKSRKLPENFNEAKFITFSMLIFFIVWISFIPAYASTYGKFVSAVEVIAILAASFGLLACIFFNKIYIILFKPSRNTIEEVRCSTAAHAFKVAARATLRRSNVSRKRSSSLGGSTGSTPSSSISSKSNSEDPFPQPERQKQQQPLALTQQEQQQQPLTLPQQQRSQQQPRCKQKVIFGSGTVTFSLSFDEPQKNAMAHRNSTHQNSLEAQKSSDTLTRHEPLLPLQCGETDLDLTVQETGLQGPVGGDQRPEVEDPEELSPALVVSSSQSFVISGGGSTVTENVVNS
Description: CaSR antagonist activity measurement was performed using Bright-Glo Luciferase assay system (Promega Corporation). CHO cells in which human CaSR and NFAT-Luciferase reporter gene were forcibly expressed were suspended in MEM alpha (Wako Pure Chemical Industries, Ltd.) containing 10% dialyzed serum (HyClone). The cells in suspension was seeded in 384-well white plate (Corning) at 10,000/20 μL/well, and cultured in an incubator of 37° C., 5% CO2 for one day. A diluent of Test compound was prepared with assay buffer (MEM alpha containing 10 mM HEPES (Life Technologies) and 10% dialysis serum). The diluent was added to the plate at 5 μL/well and allowed to stand at 37° C. for 10 minutes. Further, a diluent of 7.8 mM CaCl2 prepared with assay buffer (final concentration 1.3 mM) was added at 5 μl/well and allowed to stand in an incubator of 37° C., 5% CO2 for 2 hours. Bright-Glo reagents (Promega Corporation) were added at 10 μL/well, and the obtained mixture was stirred for 5 minutes, and then luminescence intensity was measured using Multi-label reader Envision (PerkinElmer, Inc.). The activity (%) of the test compound was calculated with the definitions in which the luminescence intensity when DMSO is added in place of the test compound is defined as 0% inhibition; and the luminescence intensity when (5R)—N-(1-ethyl-1-(4-ethylphenyl)propyl)-2,7,7-trimethyl-5-phenyl-4,5,6,7-tetrahydropyrazolo[1,5-a] Pyrimidine-3-carboxamide at final concentration of 10 μM is added is defined as 100% inhibition.

[2] = test system: CSQ-Tg mice; test: Effect on survival rate of heart failure animal model; format: in vivo; conditions: oral QD 68 days, control: candesartan cilexetil mono-administration
Description: FIG. 1 is a graph showing a result of Test Example 5 “Effect of Compound of Example 1 on Survival Rate of Heart Failure Animal Model”, that is, survival rates of each of the mono-administration group of candesartan cilexetil, the co-administration group of candesartan cilexetil and the compound of Example 1 at 10 mg/kg bodyweight/day, and the co-administration group of candesartan cilexetil and the compound of Example 1 at 30 mg/kg bodyweight/day (log-rank test, the co-administration group of candesartan cilexetil and the compound of Example 1 at 10 mg/kg bodyweight/day (p<0.05), the co-administration group of candesartan cilexetil and the compound of Example 1 at 30 mg/kg bodyweight/day (p<0.01)).
In this Test Example, effect of Example 1 on survival rate was examined using heart failure animal models. The mice reported in Larry R. Jones et al., J. Clin. Invest. 101: 1385-1393, 1998 were obtained from the University of Pennsylvania and bred in-house, which were cardiac-specific transgenic mice of Calsequestrin (CSQ) (CSQ-Tg mice) as the heart failure animal models. In the study, female mice were used, and dosing was started from the age of 5 weeks. The animals were fed with chow (CE-2, CLEA Japan, Inc.) and tap water under the condition of room temperature of 20 to 26° C., humidity of 40 to 70%, and lighting time of 12 hours/day (7:00 to 19:00). […]

CCc1ccc([C@@](CC)(NC(=O)c2c(C)nn3c2N[C@@H](c2ccccc2)CC3(C)C)C(=O)N[C@@H](C)C(N)=O)cc1 [Example 1, (5R)-N-((2R)-1-(((2S)-1-Amino-1-oxopropan-2-yl)amino)-2-(4-ethylphenyl)-1-oxobutan-2-yl)-2,7,7-trimethyl-5-phenyl-4,5,6,7-tetrahydropyrazolo[1,5-a]pyrimidine-3-carboxamide]
inhibition at 3.3 µM [1]: 103%
Survival rate, log-rank test p ([2]; 10 mg/kg bodyweight/day co-administered with candesartan cilexetil (1 mg/kg bodyweight/day)): < 0.05
Survival rate, log-rank test p ([2]; 30 mg/kg bodyweight/day co-administered with candesartan cilexetil (1 mg/kg bodyweight/day)): < 0.01
